Measurements reported in patent US20090298799A1, “Methods of Treating Osteoporosis and Secondary Hyperparathyroidism Using 20-Methyl, Gemini Vitamin D3 Compounds” (BioXell S.p.A., priority 2005, published 2009).

Columns and labels:
OVX rats = assay: Osteoporosis, early curative treatment in 3 month old OVX rats; details: for Tibia (μCT) increased over OVX controls / vertebrae (L5) increase over OVX control rats: 5/7 days for 3 weeks; for efficacy compared with calcitriol: 3 month old OVX rats
Procedure: Three-month old Sprague Dawley female rats were purchased from CERJ or Charles River, France. Rats underwent bilateral ovariectomy (OVX) or sham-operation (Sham) under anesthesia with intraperitoneal ketamine hydrochloride (50 mg/kg BW). The success of ovariectomy was evidenced at necropsy by weighing the uterus and visualizing the absence of ovarian tissue.
Throughout the whole experiment, rats were housed at 22±2° C. with a 12 h:12 h light-dark cycle. The animals were pair-fed a standard diet (Safe, 0.6% P, 0.8% Ca) and received Eau de Volvic ad libitum.
The treatment started 3 weeks post-ovariectomy. Compounds were firstly dissolved in ethanol (1 mg/ml). The other dilutions were done in Miglyol 812N. Compounds or vehicle (sham, OVX control rats) were given by daily oral gavage (5 ml/kg), 5/7 days for 3 weeks. […] Before the beginning of treatment, groups of sham and OVX rats were sacrificed to serve as basal controls. Ten and three days before sacrifice, rats were given subcutaneous injections of calcein (10 ml/kg, Sigma) to determine dynamic changes in bone tissue. The day before sacrifice, the rats were fasted and housed in metabolic cages to collect overnight urines.
At necropsy, right long bones were removed and fixed in 70% ethanol for further μCT (tibia and femur) and histomorphometry (tibia) analysis. The whole left legs were collected for pQCT analysis. The fourth and fifth lumbar vertebrae were dissected for DXA analysis. Excised tibias were scanned by a μCT machine (Scanco Medical) with software version 3.1 for a 2D-evaluation. The scans started at a distance of 1 mm of the reference line in the proximal tibia metaphysis. Five 0.5 mm-spaced slices were analyzed. The slice thickness was 20-30 μm. Bone volume (BV/TV) and trabeculae number (TbN) and thickness (TbTh) were assessed. Excised tibias were scanned by a pQCT machine (Stratec XCT Research SA+) with software version 5.4 to assess trabecular and cortical Bone Mineral Density (BMD) of proximal tibia metaphysis. For analysis of trabecular bone, the distance between the reference line and the first measurement line was 3 mm. Three other lines separated by 1 mm were analyzed. The cortical BMD was analyzed at 20 mm from the reference line. The voxel size was 0.10 mm. The peel mode used was 20/50. The BMD of excised fourth (L4) and fifth (L5) lumbar vertebrae were scanned by a DXA machine (Hologic QDR 4500) with software optimized for small animal studies. The regional high-resolution software selected a thin X-ray aperture. The large region was 68-71 and the narrow one was 35-21 to assess the body of the vertebrae of L4 and L5.
Left tibia from each rat was removed and dissected free of adjacent tissues. The bones were fixed in 70% ethanol, dehydrated in graded concentrations of ethanol, defatted in xylene, then embedded without decalcification in methyl methacrylate. Five μm-thick sections were made and stained with toluidine blue and cyanin solochrome and used for structural and cellular parameters evaluation. Ten μm-thick sections remained unstained for florescence microscopy observations. Structural and dynamic parameters were measured in the secondary spongiosa of the proximal tibial metaphysis situated about 1 mm distal from the growth plate-epiphyseal junction. Structural parameters, i.e. trabecular bone volume BV/TV (%), trabecular thickness (μm), connections and number, as well as cellular parameters (osteoblast, osteoid surfaces and osteoclast number), and dynamic parameters (mineralizing surface, mineral apposition rate, bone formation rate) were evaluated.
Osteocalcin (IRMA kit, Immutopics), DPyr (Metra DPD EIA kit), CTx (Ratlaps ELISA, Nordic, Bioscience Diagnostics) Ca, P, creatinin (Cobas Mira analyser) and rat PTH (Immutopics) were assessed in serum or urine material according to the manufacturer's instructions.

[1] = Determination of maximum tolerated dose (MTD) without hypercalcemia; design: species or system mice; details: female, C57BL/6, mouse, in vivo, po; p.o. daily for four days; highest dose without hypercalcemia (serum calcium>10.7 mg/dl)
Procedure: The maximum tolerated dose of the vitamin D3 compounds of the invention were determined in eight week-old female C57BL/6 mice (3 mice/group) dosed orally (0.1 ml/mouse) with various concentrations of Vitamin D3 analogs daily for four days. Analogs were formulated in miglyol for a final concentration of 10, 30, 100 and 300 μg/kg when given at 0.1 ml/mouse p.o. daily. Blood for serum calcium assay was drawn by tail bleed on day five, the final day of the study. Serum calcium levels were determined using a colormetric assay (Sigma Diagnostics, procedure no. 597). The highest dose of analog tolerated without inducing hypercalcemia (serum calcium>10.7 mg/dl) was taken as the maximum tolerated does (MTD).

nephrectomized rats = assay: Secondary hyperparathyroidism, 5/6 nephrectomized (uremic) rats; type: in vivo, Sprague Dawley rats; details: for efficacy in PTH suppression and bone porosity / results compared to Zemplar in PTH suppression, CaxP, bone porosity and aortic calcification / safety profile compared to Zemplar: rat, in vivo; for bone protection / efficacy: rats with moderate renal failure
Procedure: Three month-old Sprague Dawley male rats (220-250 g BW) were purchased from CERJ, France, Rats were ⅚ nephrectomized (right kidney and ⅔ left kidney removed by surgery) or sham-operated (controls) by the supplier according to Prostrakan'procedures. The success of nephrectomy was evidenced at necropsy by visualizing the kidney tissue and measuring serum creatinin and urea. There were 10-12 rats in each group. […] Twenty days after operation, phosphate (Na2HPO4) was added to Eau de Volvic (6 g/l). Experimental procedures were approved by the Animal Ethics Committee of Prostrakan and by DDSV of Seine St Denis, France. The treatment started 82 days post-nephrectomy. Compounds were firstly dissolved in ethanol (1 mg/ml). The other dilutions were done in Miglyol 812N. […] Before the beginning of treatment, groups of control and nephrectomized rats were sacrificed to served as basal controls.
The whole left legs were collected for pQCT analysis. […] Five 0.5 mm-spaced slices were analyzed. The slide thickness was 20-30 μm. Bone volume (BV/TV) and trabecular number (TbN) and thickness (TbTh) were assessed. […] Three other lines separated by 1 mm were analyzed. […] The voxel size was 0.10 mm. The peel mode used was 20/50.
Ten μm-thick sections remained unstained for fluorescence microscopy observations.
To assess the calcification, aortas (6 cm-segment starting at arch), hearts and remaining kidney tissues were removed and fixed for histology analysis. Aortas segments were fixed in 3.7% formaldehyde and embedded in paraffin. Five μm cross sections were made and stained with a Von Kossa method for the calcification evaluation. The following grading of the calcification was used: moderate when less 50% of the aortic perimeter was calcified; severe when 100% of the aortic perimeter was calcified.
Data were expressed as mean±sem. […] The ANOVA test was used for all groups.

renin = assay: Renin inhibition in vitro
IFN-γ production = IFN-γ production by allogeneic T cell activation in the mixed leukocyte response (MLR); type: cell-based; details: 120 h; allogeneic PBMC from 2 donors, 5 days, ELISA
Procedure: Immature dendritic cells (DC) were prepared as described in Romani, N. et al., J. Immunol. Meth. 196.137. IFN-γ production by allogeneic T cell activation in the mixed leukocyte response (MLR) was determined as described in Penna, G., et al., J. Immunol., 164: 2405-2411 (2000).
Briefly, peripheral blood mononuclear cells (PBMC) were separated from buffy coats by Ficoll gradient and the same number (3×105) of allogeneic PBMC from 2 different donors were co-cultured in 96-well flat-bottom plates. After 5 days, IFN-γ production in the MLR assay was measured by ELISA and the results expressed as amount (nM) of test compound required to induce 50% inhibition of IFN-γ production (IC50) (Table 1).

| SMILES | efficacy compared with calcitriol (OVX rats) | MTD at 4 days [1] [µg/kg] | peritrabecular fibrosis (tibia) (nephrectomized rats; 0.1 μg/kg) | efficacy in PTH suppression and bone porosity (nephrectomized rats) | results compared to Zemplar in PTH suppression, CaxP, bone porosity and aortic calcification (nephrectomized rats) | safety profile compared to Zemplar (nephrectomized rats) | bone protection (nephrectomized rats) | efficacy (nephrectomized rats) | inhibition of renin in vitro compared with calcitriol (renin) | results compared to Zemplar in the renin inhibition in vitro experiments (renin) | also measured |
| --- | --- | --- | --- | --- | --- | --- | --- | --- | --- | --- | --- |
| C=C1/C(=C\C=C2/CCC[C@@]3(C)C2CCC3[C@](C)(CC#CC(O)(C(F)(F)F)C(F)(F)F)CCCC(C)(C)O)CC(O)C[C@@H]1O (stereo partly drawn) [Compound 1, (20S)-1,25-Dihydroxy-20-(5,5,5-trifluoro-4-hydroxy-4-trifluoromethyl-pent-2-ynyl)-cholecalciferol] | greater efficacy than calcitriol | 0.3 | – | – | – | – | – | – | – | – | Tibia (μCT) increased over OVX controls (OVX rats; 0.3 μg/kg oral): 90%; vertebrae (L5) increase over OVX control rats (OVX rats; 0.3 μg/kg oral): 8%; efficacy vs. calcitrol on travecular bone volume (OVX rats; 0.3 μg/kg, FIG. 4): higher; Tibia (μCT) increased over OVX controls (OVX rats; 1 μg/kg oral): 114%; vertebrae (L5) increase over OVX control rats (OVX rats; 1 μg/kg oral): 12% |
| C=C1/C(=C\C=C2/CCC[C@@]3(C)C2CCC3[C@](C)(C/C=C\C(O)(C(F)(F)F)C(F)(F)F)CCCC(C)(C)O)CC(O)C[C@@H]1O (stereo partly drawn) [Compound 2, (20S)-1,25-Dihydroxy-20-((2Z)-5,5,5-trifluoro-4-hydroxy-4-trifluoromethyl-pent-2-enyl)cholecalciferol] | – | 0.3 | one of ten rats | demonstrated efficacy | greater or equal positive results compared to Zemplar | equal or more beneficial results | provided bone protection on the tibia and vertebrae | good efficacy | stronger inhibitition of renin in vitro over calcitriol | greater or equal positive results compared to Zemplar | osteoid thickening (tibia) (nephrectomized rats; 1 μg/kg): normal levels; rats with mild porous levels of femur cortical porosity (nephrectomized rats; 1 μg/kg): four of ten rats; femur cortical porosity (nephrectomized rats; 3 μg/kg): nine rats demonstrated normal levels; osteoid thickening (tibia) (nephrectomized rats; 3 μg/kg): normal levels; peritrabecular fibrosis (tibia) (nephrectomized rats; 3 μg/kg): normal levels |
| C=C1/C(=C\C=C2/CCC[C@@]3(C)C2CCC3[C@](C)(C/C=C/C(O)(C(F)(F)F)C(F)(F)F)CCCC(C)(C)O)CC(O)C[C@@H]1O (stereo partly drawn) [Compound 3, (20S)-1,25-Dihydroxy-20-[(2E)-5,5,5-trifluoro-4-hydroxy-4-trifluoromethyl-pent-2-enyl]-cholecalciferol] | greater efficacy than calcitriol | – | – | – | – | – | – | – | – | – | IC50 (IFN-γ production): 0.044 nM |
| C=C1/C(=C\C=C2/CCC[C@@]3(C)C2CCC3[C@@](C)(CC#CC(O)(C(F)(F)F)C(F)(F)F)CCCC(C)(C)O)CC(O)C[C@@H]1O (stereo partly drawn) [Compound 4, (20R)-1,25-Dihydroxy-20-(5,5,5-trifluoro-4-hydroxy-4-trifluoromethyl-pent-2-ynyl)-cholecalciferol] | – | – | normal levels | demonstrated efficacy | greater or equal positive results compared to Zemplar | equal or more beneficial results | provided bone protection on the tibia and vertebrae | good efficacy | stronger inhibitition of renin in vitro over calcitriol | greater or equal positive results compared to Zemplar | osteoid thickening (tibia) (nephrectomized rats; 0.03 μg): normal levels; peritrabecular fibrosis (tibia) (nephrectomized rats; 0.03 μg/kg): one of nine rats; rats with mild porous levels of femur cortical porosity (nephrectomized rats; 0.03 μg/kg): four of nine rats; osteoid thickening (tibia) (nephrectomized rats; 0.1 μg/kg): one of nine rats; rats with mild porous levels of femur cortical porosity (nephrectomized rats; 0.1 μg/kg): one of nine rats |
| C=C1/C(=C\C=C2/CCC[C@@]3(C)C2CCC3[C@@](C)(C/C=C/C(O)(C(F)(F)F)C(F)(F)F)CCCC(C)(C)O)CC(O)C[C@@H]1O (stereo partly drawn) [Compound 5, (20R)-1,25-Dihydroxy-20-[(2E)-5,5,5-trifluoro-4-hydroxy-4-trifluoromethyl-pent-2-enyl]-cholecalciferol] | – | 0.1 | – | – | – | – | – | – | – | – | – |
| C=C1/C(=C\C=C2/CCC[C@@]3(C)C2CCC3[C@](C)(CC#CC(O)(C(F)(F)F)C(F)(F)F)CCCC(C)(C)O)CC(O)C[C@@H]1F (stereo partly drawn) [Compound 6, (20S)-1α-Fluoro-25-hydroxy-20-(5,5,5-trifluoro-4-hydroxy-4-trifluoromethyl-pent-2-ynyl)-cholecalciferol] | – | 100 | – | – | – | – | – | – | – | – | – |
